Assay results: patent US20150031102A1, “METHODS AND COMPOSITIONS FOR ENHANCED PRODUCTION OF BUTANOL BY CLOSTRIDIA” (Butrolix LLC, priority 2012, published 2015)

System: C. acetobutylicum
Experiment: Continuous culture, 2.5 L, dilution rate 0.01 per hour, 20 days (butanol, residual glucose, optical density, pH, yield, productivity)
Format: cell-based, Clostridium acetobutylicum
Settings: for Productivity / Yield / Butanol: 50 nM peptide, Table 54; for Butanol: average ± SD of triplicate samples
Procedure: Lastly, 2.5 L continuous culture studies were conducted using the optimum peptide treatment level that was determined by the sequential batch transfer experiments. An untreated and a peptide-treated culture were grown in parallel, identical vessels with identical dilution rates for 20 days. The continuous cultures were initiated by inoculating 2.25 L of sterile medium in each culture vessel using 250 mL of peptide-treated and untreated batch cultures that had been grown for 24 hours. The batch cultures used as inoculum were the third of sequential batch transfer cultures, which made inoculation of the continuous cultures the fourth sequential transfer. After inoculation, the continuous cultures were grown for 24 hours before beginning to feed fresh medium at a rate of 0.01 volumes per hour. Triplicate samples were taken from each continuous culture every 24 hours. Optical density of the replicates was measured and culture supernatants were recovered following centrifugation and analyzed later for butanol and residual glucose concentrations. The analyses were used to calculate yield and productivity of the cultures.
Clostridium acetobutylicum strain ATCC 824 was used in all experiments and the growth medium used for sequential batch transfer, time course, and continuous culture experiments contained yeast extract, casamino acids, L-cysteine, L-asparagine, phosphate buffer, trace minerals, and 6% glucose. What are believed to be quorum-sensing peptides that were used in the experiments were chemically synthesized peptides SEQ ID NO: 143 (amino acid sequence: SYPGWSW) and SEQ ID NO: 144 (amino acid sequence: ILILISG). Routine growth of the bacteria as well as the sequential batch and time course experiments were conducted in a Form a Scientific Model 1029 anaerobic gas chamber at 32° C. Continuous cultures were performed at 32° C. using duplicate New Brunswick Scientific BioFlo 3000 apparati with a dilution rate of 0.01 volume per hour, 75 rpm agitation, and nitrogen gas sparging. Optical density of culture samples was measured at 600 nm in a Beckman DU 600 series spectrophotometer and glucose was analyzed using a YSI Model 2700 Select Biochemistry Analyzer with internal glucose calibration. Butanol concentrations were determined by measuring experimental and standard samples using a Varian Saturn 3 Gas Chromatograph/Mass Spectrometer and calculating butanol concentrations using standard curves.
Data from continuous cultures using a 6% glucose medium in vessels with a working volume of 2.5 L run at a dilution rate of 0.01 per hour. Two vessels were run in parallel, one of which was treated with 50 nM of peptide SEQ ID NO: 143 and the other was untreated. The vessels were sparged continuously with nitrogen gas to maintain anaerobic conditions and were agitated at 75 rpm. On Day 0, the vessels were inoculated with a 1/10 volume (250 mL) of overnight cultures that were either treated with peptide or untreated, and that were the third transfer of the cultures, which made inoculation of the continuous cultures the fourth transfer. Triplicate samples were collected aseptically from each vessel immediately after inoculation and every 24 hours thereafter. The cultures were allowed to grow for 24 hours prior to beginning to feed fresh medium, and were maintained for 20 days each, without pH control. The optical density of each sample was measured immediately at 600 nm, the samples were centrifuged to remove cells, and the cell-free supernatants were frozen for later analysis. A representative experiment is shown in FIG. 19 and Tables 34 and 35.
Using the optimum peptide treatment level that was determined by the sequential batch transfer experiments, 2.5 L continuous culture studies were conducted. An untreated and a peptide-treated culture were grown in parallel, identical vessels using the same dilution rates for 20 days for each of the peptides BP110517 and BP1106213. […]

[1] = 24 hour period preceding day 10
[2] = 24 hour period preceding day 11
[3] = 24 hour period preceding day 12
[4] = 24 hour period preceding day 13
[5] = 24 hour period preceding day 14
[6] = 24 hour period preceding day 15
[7] = 24 hour period preceding day 16
[8] = 24 hour period preceding day 17
[9] = 24 hour period preceding day 18
[10] = 24 hour period preceding day 19
[11] = 24 hour period preceding day 20

Substance: ILILISG (Derived from Clostridium acetobutylicum SEQ ID NO: 110) [peptide SEQ ID NO: 144]
- Butanol content compared with the untreated culture (50 nM BP1106213, starting at day 2 and throughout the rest of the study): untreated culture remained significantly higher
- pH (50 nM BP1106213 and its untreated control, after the first 4 days, for the duration of both cultures): ~4.2
- Optical density (600 nm) (50 nM BP1106213 and its untreated control, almost the complete duration of the cultures): above 2.0
- Glucose consumption (50 nM BP1106213 and untreated, day three through the end of the study): entirely consumed
- Productivity (24 hour period preceding day 1): 0.53 g Butanol/L-h
- Yield (24 hour period preceding day 1): 0.19 g Butanol/g Glucose
- Productivity (24 hour period preceding day 2): −0.17 g Butanol/L-h
- Yield (24 hour period preceding day 2): −0.28 g Butanol/g Glucose
- Productivity (24 hour period preceding day 3): 0.07 g Butanol/L-h
- Yield (24 hour period preceding day 3): 0.11 g Butanol/g Glucose
- Productivity (24 hour period preceding day 4): 0.29 g Butanol/L-h
- Yield (24 hour period preceding day 4): 0.46 g Butanol/g Glucose
- Productivity (24 hour period preceding day 5): 0.24 g Butanol/L-h
- Yield (24 hour period preceding day 5): 0.39 g Butanol/g Glucose
- Productivity (24 hour period preceding day 6): 0.07 g Butanol/L-h
- Yield (24 hour period preceding day 6): 0.11 g Butanol/g Glucose
- Productivity (24 hour period preceding day 7): 0.14 g Butanol/L-h
- Yield (24 hour period preceding day 7): 0.23 g Butanol/g Glucose
- Productivity (24 hour period preceding day 8): 0.06 g Butanol/L-h
- Yield (24 hour period preceding day 8): 0.10 g Butanol/g Glucose
- Productivity (24 hour period preceding day 9): 0.07 g Butanol/L-h
- Yield (24 hour period preceding day 9): 0.11 g Butanol/g Glucose
- Productivity [1]: 0.00 g Butanol/L-h
- Yield [1]: 0.01 g Butanol/g Glucose
- Productivity [2]: 0.20 g Butanol/L-h
- Yield [2]: 0.33 g Butanol/g Glucose
- Productivity [3]: 0.02 g Butanol/L-h
- Yield [3]: 0.04 g Butanol/g Glucose
- Productivity [4]: −0.11 g Butanol/L-h
- Yield [4]: −0.18 g Butanol/g Glucose
- Productivity [5]: 0.00 g Butanol/L-h
- Yield [5]: 0.00 g Butanol/g Glucose
- Productivity [6]: 0.03 g Butanol/L-h
- Yield [6]: 0.05 g Butanol/g Glucose
- Productivity [7]: 0.11 g Butanol/L-h
- Yield [7]: 0.17 g Butanol/g Glucose
- Productivity [8]: −0.01 g Butanol/L-h
- Yield [8]: −0.02 g Butanol/g Glucose
- Productivity [9]: 0.01 g Butanol/L-h
- Yield [9]: 0.01 g Butanol/g Glucose
- Productivity [10]: 0.06 g Butanol/L-h
- Yield [10]: 0.09 g Butanol/g Glucose
- Productivity [11]: 0.01 g Butanol/L-h
- Yield [11]: 0.01 g Butanol/g Glucose
- Butanol (day 0): 0.6 ± 0.0 g/L
- Butanol (day 1): 7.0 ± 0.5 g/L
- Butanol (day 2): 8.2 ± 0.9 g/L
- Butanol (day 3): 6.9 ± 0.6 g/L
- Butanol (day 4): 5.0 ± 0.2 g/L
- Butanol (day 5): 4.6 ± 0.3 g/L
- Butanol (day 6): 5.2 ± 0.2 g/L
- Butanol (day 7): 4.9 ± 0.2 g/L
- Butanol (day 8): 5.6 ± 0.0 g/L
- Butanol (day 9): 5.1 ± 0.1 g/L
- Butanol (day 10): 5.1 ± 0.0 g/L
- Butanol (day 11): 5.2 ± 0.2 g/L
- Butanol (day 12): 5.1 ± 0.1 g/L
- Butanol (day 13): 5.0 ± 0.1 g/L
- Butanol (day 14): 5.4 ± 0.1 g/L
- Butanol (day 15): 5.5 ± 0.1 g/L
- Butanol (day 16): 5.5 ± 0.1 g/L
- Butanol (day 17): 5.3 ± 0.1 g/L
- Butanol (day 18): 5.1 ± 0.2 g/L
- Butanol (day 19): 4.3 ± 0.2 g/L
- Butanol (day 20): 2.9 ± 0.1 g/L
- Effect on differentiation and butanol production (continuous cultures): strong inhibitor of differentiation and butanol production
